Test results: paper PMC314469, “Protein Interaction Networks by Proteome Peptide Scanning” (PLoS Biology, 2004)

Each sequence was assayed on Myo5 SH3 domain (assay: SPOT analysis of cellulose-bound peptides (WISE), Myo5 SH3 domain (Dataset S4)). Conditions: SPOT analysis of cellulose-bound 14-mer yeast proteome peptides, Myo5 SH3 domain; normalized value; mean where the peptide was synthesized more than once.
Format: binding, Saccharomyces cerevisiae

Compared with ILQILFEPMPPFNS, RLLALFIPALPFII is higher in “The normalized value in BLU units” value: 200.5 BLU for the first, 264.8 BLU for the second.

First: KPMLHNVPHDPSLP
Second: NPQSLARPPPPKRI
The “The normalized value in BLU units” value of the first is higher: 412.6 BLU for the first, 247.6 BLU for the second.

Compared with MPNLKRLPIPPLQD, ELFTFDMPTDPSSF is lower in “The normalized value in BLU units” value: 306.9 BLU for the first, 44.9 BLU for the second.

First: YEADYVIPVLPGSH
Second: EFDMLLLPFIPSID
The “The normalized value in BLU units” value of the first is lower: 124.6 BLU for the first, 249.2 BLU for the second.

Going from ALYHLSNPNVPKLW to RLFDLVKPKNPKFS, the “The normalized value in BLU units” value rises from 195.7 BLU to 441.1 BLU.

Going from FARTLKIPNEPSPG to QPQHLPPPPPPRAQ, the “The normalized value in BLU units” value rises from 145.7 BLU to 76158.3 BLU.

First: VTSVKLHPNLPIVF
Second: FEDHHITPCKPGGQ
The “The normalized value in BLU units” value of the first is higher: 136.6 BLU for the first, 67.9 BLU for the second.

Going from KAVHLYFPILPHCG to RLQKLDDPKSPYQC, the “The normalized value in BLU units” value rises from 125.3 BLU to 127.2 BLU.

Compared with EFSPHSTPVTPRRL, KSYRKADPTNPQGW is lower in “The normalized value in BLU units” value: 114.0 BLU for the first, 103.0 BLU for the second.

Compared with ITDTKLFPGNPNLM, KKNKKKVPLNPLAK is higher in “The normalized value in BLU units” value: 94.6 BLU for the first, 522.6 BLU for the second.

Going from ELYYLNDPKYPGTK to NEHGMNAPSVPEFI, the “The normalized value in BLU units” value rises from 0.0 BLU to 344.1 BLU.

With SPVPLGSPRGPLPV the “The normalized value in BLU units” value was 135.1 BLU.

Same assay, conditions: SPOT analysis of cellulose-bound peptides probed with Myo5 SH3 domain; normalized value

First: FAYSLGLPGAPKIK
Second: NEKLHETPHLPSPV
The “The normalized value in BLU units (SPOT analysis, Myo5 SH3)” value of the first is lower: 75.8 BLU for the first, 109.3 BLU for the second.

Compared with KLWDLSKPSKPLKE, GLHDYTSPASPKQT is lower in “The normalized value in BLU units (SPOT analysis, Myo5 SH3)” value: 233.1 BLU for the first, 129.7 BLU for the second.

First: VLKGFYSPSAPSYD
Second: PEVLMDQPYSPLSD
The “The normalized value in BLU units (SPOT analysis, Myo5 SH3)” value of the first is higher: 290.1 BLU for the first, 78.7 BLU for the second.

Compared with LWILYMSPDVPSAS, SFTPFNRPSDPSNG is lower in “The normalized value in BLU units (SPOT analysis, Myo5 SH3)” value: 252.6 BLU for the first, 208.5 BLU for the second.

First: VFLRLISPTRPSLE
Second: GETRWRIPYLPLDP
The “The normalized value in BLU units (SPOT analysis, Myo5 SH3)” value of the first is higher: 1635.5 BLU for the first, 118.4 BLU for the second.

Compared with KFTDMQVPKGPVCP, AANAHISPPVPGPA is lower in “The normalized value in BLU units (SPOT analysis, Myo5 SH3)” value: 197.0 BLU for the first, 28.6 BLU for the second.

First: VPDQLLTPLQPYTI
Second: SAYYLGLPVTPEDM
The “The normalized value in BLU units (SPOT analysis, Myo5 SH3)” value of the first is lower: 168.3 BLU for the first, 215.1 BLU for the second.

Going from NPGSMSMPGVPTSM to QLIGFGNPKNPFAL, the “The normalized value in BLU units (SPOT analysis, Myo5 SH3)” value falls from 189.7 BLU to 46.1 BLU.

First: SLAVYNIPLFPDDP
Second: PPQTHQSPPPPPQQ
The “The normalized value in BLU units (SPOT analysis, Myo5 SH3)” value of the first is lower: 91.7 BLU for the first, 222.2 BLU for the second.

Compared with SLLIHSLPRKPLLM, KPAVLHYPPIPASA is lower in “The normalized value in BLU units (SPOT analysis, Myo5 SH3)” value: 314.4 BLU for the first, 183.1 BLU for the second.

Compared with EAGDFEQPKGPAGA, KLGRFTNPQQPRED is higher in “The normalized value in BLU units (SPOT analysis, Myo5 SH3)” value: 49.8 BLU for the first, 227.3 BLU for the second.

First: QELRFLVPLVPLLV
Second: REFEFIIPVFPVIC
The “The normalized value in BLU units (SPOT analysis, Myo5 SH3)” value of the first is lower: 119.1 BLU for the first, 163.2 BLU for the second.

Going from EETEMLAPKLPEEN to GETQWRIPYLPLDP, the “The normalized value in BLU units (SPOT analysis, Myo5 SH3)” value rises from 81.6 BLU to 106.2 BLU.

Same assay, conditions: SPOT analysis of membrane-bound peptides, Myo5 SH3 domain; normalized value (see methods)

Compared with SYMDKIYPDLPNDK, KRRSKSLPTTPGIR is higher in “The normalized value in BLU units” value: 83.0 BLU for the first, 592.0 BLU for the second.

First: NTVEKLQPGLPVII
Second: NEFAKFAPDLPVLK
The “The normalized value in BLU units” value of the first is higher: 279.7 BLU for the first, 135.1 BLU for the second.

Going from NDDKKTEPDKPAFS to EFLIKEDPDLPPQG, the “The normalized value in BLU units” value rises from 140.5 BLU to 175.4 BLU.

Going from RLPSKTDPLDPHIK to LAPKREAPKPPANT, the “The normalized value in BLU units” value rises from 129.4 BLU to 116079.9 BLU.

Compared with YVVKKNFPVSPNYT, NSNVRIPPTVPSKI is higher in “The normalized value in BLU units” value: 193.9 BLU for the first, 423.1 BLU for the second.

Compared with KLVLRNVPILPILN, ELQIRYKPTPPLKK is lower in “The normalized value in BLU units” value: 303.3 BLU for the first, 171.0 BLU for the second.

Compared with SANGKFIPSRPAPK, RYCFKLLPPQPGSK is lower in “The normalized value in BLU units” value: 6758.2 BLU for the first, 189.7 BLU for the second.

Compared with MKPQKIAPKFPGTV, FLHSKKIPEVPQTD is lower in “The normalized value in BLU units” value: 415.8 BLU for the first, 287.9 BLU for the second.

Compared with PIGSRYNPNLPVTE, NAPPRIFPKAPIYG is lower in “The normalized value in BLU units” value: 187.4 BLU for the first, 168.1 BLU for the second.

First: KNLKKYDPEDPNRR
Second: DDIIKDHPHIPNGQ
The “The normalized value in BLU units” value of the first is higher: 207.1 BLU for the first, 57.8 BLU for the second.

Compared with VASSRTEPSTPSRP, HLLGKEGPSAPNPS is lower in “The normalized value in BLU units” value: 178.5 BLU for the first, 124.5 BLU for the second.

Compared with TVCDRLIPTSPQKT, EKNARGIPQAPFIE is higher in “The normalized value in BLU units” value: 127.7 BLU for the first, 135.6 BLU for the second.

Going from TMKNKPKPTPPSPP to TSNTKWTPITPSVI, the “The normalized value in BLU units” value falls from 909.8 BLU to 141.7 BLU.

Compared with KTSTKAQPAEPQAE, HELVKSDPHFPYGT is higher in “The normalized value in BLU units” value: 166.8 BLU for the first, 229.2 BLU for the second.

Going from TASGKTSPILPLQN to YEGPRGAPGMPEML, the “The normalized value in BLU units” value falls from 290.5 BLU to 166.5 BLU.

Going from PPPPRRGPAPPPPP to TTRRKKDPNAPKRR, the “The normalized value in BLU units” value falls from 15026.4 BLU to 999.1 BLU.

Same assay, conditions: SPOT analysis of membrane-synthesized peptides probed with Myo5 SH3 domain; normalized value

First: PPQMRSNPQQPPQD
Second: PANPKILPKIPSGA
The “The normalized value in BLU units (SPOT analysis, Myo5 SH3)” value of the first is higher: 268.2 BLU for the first, 164.4 BLU for the second.

Compared with LDVRRIYPKGPLLV, NIPTKSPPKSPKHK is higher in “The normalized value in BLU units (SPOT analysis, Myo5 SH3)” value: 231.6 BLU for the first, 12462.9 BLU for the second.

First: STNAKKDPFPPPKD
Second: GDEERFLPNRPHYE
The “The normalized value in BLU units (SPOT analysis, Myo5 SH3)” value of the first is higher: 198.5 BLU for the first, 125.8 BLU for the second.

Going from YVNAKLDPSLPSQY to ALSTKGYPHEPPLL, the “The normalized value in BLU units (SPOT analysis, Myo5 SH3)” value rises from 97.1 BLU to 138.6 BLU.

First: PVRCRVLPATPRQI
Second: WFDLKGLPRQPEPL
The “The normalized value in BLU units (SPOT analysis, Myo5 SH3)” value of the first is higher: 1474.0 BLU for the first, 101.7 BLU for the second.

Going from KMAKKLLPYKPHNS to KQSKRARPSSPYTV, the “The normalized value in BLU units (SPOT analysis, Myo5 SH3)” value falls from 707.5 BLU to 271.3 BLU.

Compared with MDKFRIPPKSPNIE, PGGPKFEPLYPREE is lower in “The normalized value in BLU units (SPOT analysis, Myo5 SH3)” value: 222.0 BLU for the first, 90.0 BLU for the second.

First: IESFRERPLEPPRK
Second: EVLRKYIPGEPEFL
The “The normalized value in BLU units (SPOT analysis, Myo5 SH3)” value of the first is lower: 98.7 BLU for the first, 168.7 BLU for the second.

First: TTNSRLCPSSPSSS
Second: NTINKSNPQGPSDN
The “The normalized value in BLU units (SPOT analysis, Myo5 SH3)” value of the first is higher: 160.8 BLU for the first, 76.2 BLU for the second.

First: VKKEKKPPKIPKKV
Second: EEEAKSVPPIPADQ
The “The normalized value in BLU units (SPOT analysis, Myo5 SH3)” value of the first is higher: 534.4 BLU for the first, 29.4 BLU for the second.

Compared with YAVGRIVPDSPTYD, RIRDKSKPSSPTAT is higher in “The normalized value in BLU units (SPOT analysis, Myo5 SH3)” value: 189.3 BLU for the first, 546.8 BLU for the second.

Compared with PKTGKPLPTQPSSS, TEVWRKVPMKPIFE is higher in “The normalized value in BLU units (SPOT analysis, Myo5 SH3)” value: 193.3 BLU for the first, 242.9 BLU for the second.
